Data taken from patent US20240142467A1, “Use of Biomarkers in the Treatment of Fibrotic Conditions with a PDE4B-inhibitor” (Boehringer Ingelheim International GmbH, priority 2022, published 2024).
Like-named read-outs stand apart in the source and are kept apart here.

Key:
[1] = system: IPF-rc-stimulated primary human small airway epithelial cells (SAEC); test: Biomarker release of IPF-rc-stimulated small airway epithelial cells (ELISA of supernatants); type: cell-based; details: for inhibition at 10 µM / IC50: Homo sapiens; for inhibition at 10 µM: SAEC, highest concentration 10 μM; for IC50: SAEC from 5 donors, 30 min pre-stimulation, supernatants 72 hrs after stimulation
Protocol: Small airway epithelial cells of primary human origin at passage 4 were seeded in PneumaCult-Ex Plus complete medium onto rat tail collagen type I (30 μg/mL in PBS) coated 24-well plates.
After incubation for 24 hrs at 37° C. and 5% CO2 cells were pre-stimulated with the PDE4-inhibitor of formula A′ for 30 min in different concentrations in PneumaCult-Ex Plus starving medium.
Afterwards an IPF-relevant cytokine cocktail (Schruf E, Schroeder V, Le H Q, Schönberger T, Raedel D, Stewart E L, Fundel-Clemens K, Bluhmki T, Weigle S, Schuler M, Thomas M J, Heilker R, Webster M J, Dass M, Frick M, Stierstorfer B, Quast K, Garnett J P. Recapitulating idiopathic pulmonary fibrosis related alveolar epithelial dysfunction in a human iPSC-derived air-liquid interface model. FASEB J. 2020 June; 34(6):7825-7846) was added to induce fibrotic changes. 72 hrs after stimulation supernatants were collected and analyzed using R&D DuoSet ELISAs following the manufacturers protocol.
To determine the inhibitory potency of the PDE4-inhibitor of formula A′ on biomarker release of IPF-rc-stimulated primary human small airway epithelial cells, the supernatants of the cell culture from 5 different donors were analyzed.

[2] = system: patients with idiopathic pulmonary fibrosis; test: Phase 2 trial NCT04419506: change from baseline in FVC at 12 weeks; type: in vivo, human; details: for lung function (FVC) compared to placebo: non-AF-background and AF-background groups; for lung function (FVC) compared to placebo / mean change in FVC from baseline to Week 12 / median change in FVC: 18 mg twice daily; for probability that the compound is superior to placebo: Bayesian borrowing analysis; for median change in FVC / median difference in FVC change vs placebo: Bayesian borrowing
Excerpt: Patients with a usual interstitial pneumonia (UIP) or probable UIP pattern on high-resolution computed tomography consistent with idiopathic pulmonary fibrosis, confirmed by central review, were eligible (Raghu et al, AM j Respir Crit Care Med 2019; 200:1089-1092). Patients also had forced FVC ≥45% predicted, and diffusing capacity of the lungs for carbon monoxide (DLco) corrected for hemoglobin 25-<80% predicted. Patients were permitted to continue antifibrotic therapy (nintedanib or pirfenidone) if they had been receiving a stable dose for at least 8 weeks prior to screening. Patients with airways obstruction, recent respiratory tract infection, or a history of suicidal behavior in the past 2 years, were excluded.
The primary endpoint—change from baseline in FVC at Week 12—was evaluated separately in patients without and with background antifibrotics at baseline, and included all data collected while on treatment. The primary analysis was based on a Bayesian borrowing approach in order to incorporate historical data for the placebo arms within the groups treated without or with background antifibrotics via meta-analytic predictive priors that were made robust against prior-data conflicts (Schmidli et al, Biometrics 2014 70: 1023-1032). A vaguely informative prior was used for the arms using the PDE4 inhibitor of formula A′ (Compound of formula A′ in the following). The primary endpoint analysis was conducted in a two-step procedure. In the first step, the data from the current trial were analyzed with a restricted maximum likelihood-based approach using a mixed model with repeated measurements (MMRM). The analysis included the fixed, categorical effect of treatment at each visit, and the fixed, continuous effects of baseline FVC at each visit. Visit was treated as the repeated measure, with an unstructured covariance structure used to model the within-patient measurements. Based on this model, the adjusted mean changes from baseline in FVC at 12 weeks (and the related standard error) were calculated for the Compound of formula A′ and placebo arms within the patient groups without and with background antifibrotics. In the second step, the adjusted means in the placebo arms were combined with the meta-analytic predictive priors derived based on the clinical trials in the nintedanib clinical development program in idiopathic pulmonary fibrosis. In order to evaluate the treatment effects in each group, the posterior distribution for the treatment difference of the compound of formula A′ versus placebo with respect to the primary endpoint was used. The median of the posterior distribution for the treatment difference (and 95% credible intervals) was calculated as the primary analysis, and posterior probabilities that the treatment difference was higher than different boundaries were reported.
Missing data for the primary analysis (continuous endpoint) were not imputed. The MMRM analysis allows for missing data, assuming they are missing at random. Sensitivity analyses were conducted to investigate the potential effect of missing data as well as early discontinuation via a treatment policy strategy, and a pooled analysis combining all patients irrespective of background treatment with antifibrotics.
As this was an exploratory trial, no confirmatory testing and adjustment for multiplicity was planned. The sample size was chosen based on the evaluations of posterior probabilities for the change from baseline in FVC at Week 12, assuming a standard deviation of 200 mL and treatment differences of 70 mL and 20 mL in the patients treated without or with background antifibrotics, respectively.

[3] = with background antifibrotics, Week 12
[4] = without background antifibrotics, Week 12

## [O-][S@+]1CCc2nc(N3CCC(c4ncc(Cl)cn4)CC3)nc(NC3(CO)CCC3)c21 [Compound of formula A′]
[1]; read-out: maximal inhibition of CTGF release
  inhibition at 10 µM: 75%
[1]; read-out: maximal inhibition of MMP7 release
  inhibition at 10 µM: 63%
[1]; read-out: maximal inhibition of OPN release
  inhibition at 10 µM: 67%
[1]; read-out: maximal inhibition of sICAM release
  inhibition at 10 µM: 39%
[1]; read-out: IC50 of IPF-rc-induced release of CTGF
  IC50: ~370 nM
[1]; read-out: IC50 of IPF-rc-induced release of MMP7
  IC50: ~4400 nM
[1]; read-out: IC50 of IPF-rc-induced release of OPN
  IC50: ~1100 nM
[1]; read-out: IC50 of IPF-rc-induced release of sICAM
  IC50: ~537 nM
[1]; IPF-rc-stimulated SAEC
  inhibition of the release of PAI1 (plasminogen activator inhibitor 1): concentration dependent manner
[2]
  lung function (FVC) compared to placebo: stabilized lung function
[2]; listed as PDE4-inhibitor of formula A′
  lung function (FVC) compared to placebo: significantly slowed decrease in lung function
[2]; pooled group with and without background antifibrotics, MMRM
  adjusted mean change from baseline in FVC after 12 weeks: +4.6 ml
[2]; pooled group with and without background antifibrotics, MMRM, Week 12
  overall treatment effect on FVC (difference vs placebo): 88.4 mL
[2]; with background antifibrotics
  probability that the compound is superior to placebo: 98.6%
[2]; with background antifibrotics, MMRM
  mean change in FVC from baseline to Week 12: +2.7 mL
[2]; with background antifibrotics, MMRM, Week 12
  difference in mean FVC change vs placebo: 80.4 mL
[2]; [3]
  median change in FVC: +2.7 mL
  median difference in FVC change vs placebo: 62.4 mL
[2]; without background antifibrotics
  probability that the compound is superior to placebo: 99.8%
[2]; without background antifibrotics, MMRM
  mean change in FVC from baseline to Week 12: +6.1 mL
[2]; without background antifibrotics, MMRM, Week 12
  difference in mean FVC change vs placebo: 101.7 mL
[2]; [4]
  median change in FVC: +5.7 mL
  median difference in FVC change vs placebo: 88.4 mL
